Data on five compounds can be found in patent US12466814B2, “Sterically shielded heptamethine cyanine dyes” (UNIVERSITY OF NOTRE DAME DU LAC, priority 2020, dated 2025).

Where two headings read alike, the source gives them in different places. Marks after values point to notes of the source that are not given here.

For data set [1] the following is noted: PBS pH 7.4, cited from earlier work; for ε: reported data; for λabs max / λem max: spectral data from reference.
The conditions of data set [2]: meso linkage is not cleaved by biological amines or thiols; cited from earlier work.
For data set [3] the following is noted: known from literature; cited from earlier work.
For data set [4] the following is noted: cited from earlier work; for QY / Brightness (fluorescence brightness = ε × QY): PBS pH 7.4; for QY: data from reference; for Brightness (fluorescence brightness = ε × QY) / Quantum yield: reported data; for Quantum yield: pH 7.4 PBS.
Data set [5] relates to integrin positive A549 cells. Description: Cell uptake by fluorescence microscopy. It counts as cell-based, human. Here is the method:
FIG. 19. […] The two targeted dyes contain a cyclic peptide cRGDfK sequence for targeting the overexpressed cell surface integrin receptors. The blocking experiments added 100 μM of free cRGDfK prior to the incubation with RGD probes. NIR heptamethine fluorescence is shown in green, and Hoechst nuclear stain is shown in blue. Scale bar=30 μm. (c) Quantification of intracellular mean fluorescence intensities as a measure of NIR dye internalization (6 micrographs per condition and 3 replicates). * indicates p<0.05, and ** p<0.01.
Cell Microscopy. For fluorescence microscopy, A549 cells were seeded and grown to 70% confluency on an 8-well chambered coverglass (Lab-Tek, Nunc, USA). […] For blocking, 100 μM of cRGDfK was added to the cells, 10 min prior to dye treatment and remained present during NIR dye incubation. After dye incubation, the cells were washed several times with PBS, fixed with 4% cold paraformaldehyde for 20 min at room temperature and washed again with PBS. […] Next, a triangle threshold was employed and used to calculate the average mean pixel intensity (MPI) where overall averages and SEM were calculated and plotted in GraphPad Prism. A total of 6 micrographs were evaluated per condition and each experiment was conducted in triplicate.

The nature of data set [6]: Absorption and emission spectral properties of dyes. The format is physicochemical. The conditions noted are these: for ε: monomer band. Here is the method: General. Reagents and solvents were purchased from Sigma-Aldrich, VWR, Oakwood, Thermo Fisher and TCI and used without further purification unless stated otherwise. Anhydrous tetrahydrofuran was distilled with metal sodium and benzophenone. Column chromatography was performed using Biotage SNAP Ultra columns. ^1H, ^13C and ROESY NMR spectra were recorded on a Bruker 500 NMR spectrometer. Chemical shifts are presented in ppm and referenced by residual solvent peak. High-resolution mass spectrometry (HRMS) was performed using a time-of-flight (TOF) analyzer with electrospray ionization (ESI). Absorption spectra were recorded on an Evolution 201 UV/vis spectrometer with Thermo Insight software. Fluorescence spectra were collected on a Horiba Fluoromax-4 fluorometer with FluoroEssence software. Analyte solutions were prepared in HPLC grade water (Sigma-Aldrich), phosphate buffered saline (Thermo Fisher), fetal bovine serum (Sigma-Aldrich) or buffer B (575 mM NaCl, 37.5 mM NaH2PO4 and 0.75 mM EDTA in water, pH 7.5). All absorption and fluorescence spectra were collected using quartz cuvettes (1 mL, 1 cm path length; for emission and excitation spectra, slit width=3 nm).

Data set [7] is described as follows: Dye self-aggregation by absorption/excitation spectra. It counts as physicochemical. The conditions noted are these: in water / aqueous media, absorption spectra.
Description: Self-aggregation of heptamethine cyanine dyes is readily indicated by conversion of monomer absorption bands into aggregate bands, in this case blue-shifted H-aggregates.
The nature of data set [8]: Quantum yield and fluorescence brightness relative to UL766. It counts as physicochemical. Conditions: for Brightness (fluorescence brightness = ε × QY): PBS pH 7.4, error ±15%; for Quantum yield: pH 7.4 PBS, relative to UL766, error ±10%. An excerpt: The fluorescence spectrum of each solution was obtained with excitation at 730 nm, and the integrated area was used in the quantum yield calculation by the following equation:
[formula] where η is the refractive index of the solvent, I is the integrated fluorescence intensity, and A is the absorbance at a chosen wavelength. […]

The nature of data set [9]: Photostability, Xenon lamp irradiation. The format is physicochemical. How it is done: FIG. 2. Two separate photostability studies. (a) Lamp irradiation: Four separate cuvettes, each containing 1 μM dye in PBS buffer, pH 7.4, were irradiated by a 150 W Xenon lamp with a 620 nm long-pass filter. The plot of normalized dye absorbance versus time was fit to a one-phase exponential decay. […] The length scale bar on each NIR fluorescence image is 1 cm.
Photostability Measurements. Lamp Irradiation: A solution of dye (1 μM) in PBS buffer, pH 7.4, was placed in a 1×1×4 cm^3 cuvette that was exposed to air and irradiated at a distance of 3 cm by a 150 W Xenon lamp with a 620 nm long-pass filter. An absorbance spectrum was recorded every 10 min. The normalized maximum absorbance of dye was plotted against time and fitted to a non-linear regression, one-phase exponential decay. […] A 1.5 mL vial containing the solution was irradiated at a distance of 3 cm by a 150 W Xenon lamp with a 620 nm long-pass filter.

Data set [10] is described as follows: Mouse biodistribution in normal mice. The format is in vivo, SKH1 hairless mice. The conditions noted are these: 10 nmol. An excerpt: FIG. 20. a) Representative whole-body NIR fluorescence images of living SKH1 hairless mice at 0, 1, and 2 hr after intravenous injection of either ICG or s775z (10 nmol). b) In vivo biodistribution of s775z and ICG in normal mice. The SKH1 hairless mice (N=4) received an intravenous injection of ICG or s775z (10 nmol) and were sacrificed after 2 hr. The mean pixel intensity (MPI) for each excised organ is relative to the MPI for thigh muscle from the same animal; error bars indicate ±SEM. * indicates p<0.05. Note: the y-axis is truncated.
Mouse Biodistribution. All animal experiments were conducted under protocols that were approved by the Notre Dame Institutional Animal Care and Use Committee. Female SKH1 hairless mice (N=4) were divided into two cohorts and received a retro-orbital injection of ICG or s775z (50 μL, 10 nmol). […] The mice were then injected with dye and imaged at 0, 1, and 2 hr. At 2 hr, the mice were anesthetized, sacrificed via cervical dislocation, and blood was collected from the heart. The lower cavity of the mice was then exposed and imaged. […] The images were pseduocolored “fire,” and an arbitrary maximum fluorescence value was chosen. […] The amount of dye was then quantified by manually drawing a region of interest around each organ. The MPI of each organ was measured and divided by the MPI for thigh muscle from the same animal.

For data set [11], the system named is subcutaneous tumor (human A549 cells). Description: Mouse tumor imaging. The format is in vivo, nude mice. Conditions: A549 tumor mice, 10 nmol. How it is done:
[…]. The fluorescence mean pixel intensity (MPI) of two regions of interest (equal sizes) on the fluorescent images (tumor or background site on the opposite flank), at different post-injection time points, were measured using ImageJ2 software and used to calculate values for Tumor MPI, and Tumor-to-Background Ratio. * indicates p<0.05, ** p<0.01, and *** p<0.001.
Mouse Tumor Imaging. All animal experiments were conducted under protocols that were approved by the Notre Dame Institutional Animal Care and Use Committee. Female Foxn1 nude mice (N=8) were inoculated with A549 cells (1×10^6) in Corning Matrigel matrix on the right rear flank. […]. The mice were then injected with dye and imaged at 0, 0.5, 1, 2, and 3 hr. At 3 hr, the mice were anesthetized and sacrificed via cervical dislocation, and blood was collected from the heart. To simulate a surgery, the mice were imaged prior to surgery, the fluorescent tumor was fully removed, and the mice were imaged again. […] For image processing, the whole body and tumor images were pseudocolored “fire,” and an arbitrary maximum fluorescence value was chosen. Biodistribution analysis was performed by importing NIR fluorescence images of the excised organs from each mouse into ImageJ2 and the amount of dye in each organ was quantified by manually drawing a region of interest around each organ and determining the fluorescence MPI. […]

As for `CC1(C)C(/C=C/C2=C(Oc3ccc(S(=O)(=O)O)cc3)C(=C/C=C3/N(CCCCS(=O)(=O)O)c4ccc(S(=O)(=O)[O-])cc4C3(C)C)/CCC2)=[N+](CCCCCC(=O)O)c2ccc(S(=O)(=O)O)cc21` [CW800], in [1], the ε is reported as 242,000 M^−1cm^−1, the λabs max was 775 nm and the λem max was 796 nm. The Stable to nucleophiles entry in data set [2] is reported as “No”. Besides, the “Change in serum under very similar conditions” value in data set [3] is on record as “degradation”. For the same compound, in data set [4], the QY is given as 0.090, the “Brightness (fluorescence brightness = ε × QY)” value (from here on “Brightness”) is recorded as 22,000 and the Quantum yield was 9.0%.

`CC1(C)C(/C=C/C2=C(c3ccc(C(=O)NCCCC[C@@H]4NC(=O)[C@@H](Cc5ccccc5)NC(=O)[C@H](CC(=O)O)NC(=O)CNC(=O)[C@H](CCCNC(=N)N)NC4=O)cc3)C(=C/C=C3/N(CCC[N+](C)(C)C)c4ccc(S(=O)(=O)O)cc4C3(C)C)/CCC2)=[N+](CCC[N+](C)(C)C)c2ccc(S(=O)(=O)O)cc21` [Dye 756z-RGD]: in data set [5] (A549 cells pre-incubated with excess (100 μM) cRGDfK), the “Cell uptake with blocking” value is “successfully blocked”. Further, in data set [5] (A549 cells, 10 μM dye, 1 hr, 37° C.), the Cell uptake entry is reported as “much higher cell uptake”. In addition, the “SS (Stokes shift)” value in data set [6] (PBS pH 7.4) amounted to 16 nm. Moreover, in data set [6] (PBS pH 7.4, room temperature), the “λabs max, aggregate (a) band” value is given as 682 (a)/ nm; the λem max is given as 773 nm; the ε was 147,000 M^−1cm^−1. The λabs max in [6] (PBS pH 7.4, room temperature, monomer (m) band where an aggregate band is also listed) was 757 (m) nm. The Aggregation state entry in [7] is “concentration-dependent mixture of fluorescent monomer and non-fluorescent H-aggregate”. Besides, in data set [8], the “Brightness” value is on record as 16,000 and the Quantum yield is 10.7^[b] %.

Take `CC1(C)C(/C=C/C=C/C=C/C=C2\N(CCCCS(=O)(=O)O)c3ccc4ccccc4c3C2(C)C)=[N+](CCCCS(=O)(=O)[O-])c2ccc3ccccc3c21` [ICG, Indocyanine Green]: the half-life at 1 μM in [9] (PBS buffer in a cuvette exposed to air, pH 7.4 PBS, 150 W Xenon lamp irradiation, 620 nm long-pass filter, 23° C., 1 μM dye, read-out: t1/2, half-life of first-order decay (converted)) was 13.3 min. Moreover, in data set [9] (pH 7.4 PBS, 150 W Xenon lamp irradiation, 620 nm long-pass filter, 23° C., 1 μM dye), the “k, rate constant of first-order decay” value was found to be 0.00087 s⁻¹. In data set [9] (separate cuvettes, dye in PBS, Xenon lamp >620 nm), the Order of photostabilities result is “s775z>756z>UL766>ICG”. Further, the Clearance from bloodstream result in [10] (retro-orbital injection, live imaging over 2 hr) is “quickly cleared from the mouse bloodstream”. Moreover, in data set [10] (sacrificed after 2 hours), the “Clearance pathway / biodistribution” value is “accumulated in the intestines and liver”. Moreover, the ε in data set [6] (PBS pH 7.4, room temperature) is recorded as 71,000 M^−1cm^−1. In data set [8], the “Brightness” value was 1,600 and the Quantum yield is 2.3^[b] %.

As for `CC1(C)C(/C=C/C2=C(Oc3ccc(CCC(=O)O)cc3)C(=C/C=C3/N(CCC[N+](C)(C)C)c4ccc(S(=O)(=O)O)cc4C3(C)C)/CCC2)=[N+](CCC[N+](C)(C)C)c2ccc(S(=O)(=O)O)cc21` [ZW800-1], in data set [1], the ε was 246,000 M^−1cm^−1, the λabs max is listed as 770 nm and the λem max is reported as 788 nm. The Stable to nucleophiles result in data set [2] is recorded as “No”. In [3], the “Change in serum under very similar conditions” value is recorded as “degradation”. In data set [4], the QY is on record as 0.135, the “Brightness” value is 33,000 and the Quantum yield is reported as 13.5%.

In the case of `COCCOCCOCCOCc1cn(Cc2cc(C(=O)NCCCC[C@@H]3NC(=O)[C@@H](Cc4ccccc4)NC(=O)[C@H](CC(=O)O)NC(=O)CNC(=O)[C@H](CCCNC(=N)N)NC3=O)cc(Cn3cc(COCCOCCOCCOC)nn3)c2C(=C\C=C\C2=[N+](CCC[N+](C)(C)C)c3ccc(S(=O)(=O)O)cc3C2(C)C)/C=C/C=C2/N(CCC[N+](C)(C)C)c3ccc(S(=O)(=O)O)cc3C2(C)C)nn1` [s775z-RGD], the “Clearance and background retention” value in data set [11] is on record as “rapid, near-exclusive renal clearance from the bloodstream”.
